Laboratory results from patent publication US20220364056A1, “SHORT-CHAIN FATTY ACID PENTANOATE AS ENHANCER FOR CELLULAR THERAPY AND ANTI-TUMOR THERAPY” (PHILIPPS-UNIVERSITÄT MARBURG, priority 2019, published 2022).

What was measured:
[1] = system: mTOR; experiment: phosphorylation of mTOR and S6 in human CTLs; type: cell-based; conditions: three days
Description: (§1) (A and B) CTLs were cultured in medium containing 1.0% FCS and treated with pentanoate (2.5 mM) for three days. Representative histogram plots and bar graphs indicate the phoshorylated levels of mTOR (A) and S6 ribosomal protein (B), respectively (n=3 pooled from three independent experiments). (C and D) Human CTLs were cultured in medium containing 1.0% serum and treated with indicated HDACi for three days. Representative histogram plots and bar graphs indicate the phoshorylated levels of mTOR (C) and S6 ribosomal protein (D), respectively (data points represent four individual healthy donors) (E) Measurement of extracellular acidification rate (ECAR) for in vitro generated murine CTLs cultured with or without 2.5 mM pentanoate for three days. ECAR was measured under basal conditions and in response to glucose (10 mM), oligomycin (2 μM), and 2-deoxy-glucose (2-DG, 100 mM). One of three independent experiments is shown.

[2] = system: CTLs; experiment: co-transfer of pentanoate-treated and control CTLs into Rag1-deficient mice; type: in vivo
From the text: To investigate the capacity of SCFAs on survival and persistence of CD8^+ T cells, we mixed pentanoate-treated CTLs (CD45.2^+) with control CTLs (CD45.1^+) at 1:1 ratio and co-transferred them into Rag1-deficient mice. To better mimic the in vivo tumor microenvironment, we also adoptively co-transferred Tregs (CD45.2^+ from FIR×tiger reporter mice) that are frequently found in solid tumors. In addition, Foxp3^−CD4^+ T cells were co-transferred as the cellular source of IL-2 (FIG. 9, A and B). […] The capacity of CFSE to label proliferative cells was used for in vivo monitoring of CD8^+ T cell proliferation in Rag1-deficient mice after pretreatment with pentanoate. […] Given the importance of CD25 in supporting an effective IL-2R signalling, as well as the proliferation and survival of lymphocytes, we next asked whether pentanoate is capable of modulating CD25 expression in CTLs.
(A) experimental setup for investigating CTL persistence in vivo is shown. (B-D) The frequency (B, C) and total cell numbers (D) of transferred T cells (WT CD45.1^+ CTLs, WT CD45.2^+ pentanoate-treated CTLs and Foxp3^+CD45.2^+ Tregs from FIR×tiger mice) in Rag1-deficient mice on days 15 after the adoptive transfer are shown. The co-transferred Foxp3^−CD4^+ cells were excluded from the gate (B, C). In D, n=_3 mice/group/experiment, data from 2 pooled independent experiments are shown. […] (G and H) Frequencies and cell numbers of CD25^+ CD8^+ T cells were analysed by flow cytometry on day 15 after transfer of control CTLs (CD45.1^+) and pentanoate-treated CTLs (CD45.2^+) into Rag1-deficient mice (n=3 mice/group/experiment, data pooled from 2 independent experiments). […] The phosphorylated (p)-STAT5 levels were analysed by flow cytometry (n=5, performed in 3 independent experiments). (J) The secretion of IL-2 in pentanoate-treated CTLs cultured for indicated time points was measured by ELISA (n=4, pooled from 2 independent experiments).

[3] = system: CTLs; experiment: extracellular acidification rate (ECAR) of CTLs; type: cell-based, murine; conditions: 2.5 mM pentanoate, three days
Description: as §1

[4] = system: Tc9 and Tc17 cells; experiment: CD8+ T cells polarized under Tc17- or Tc9-inducing conditions; type: cell-based, murine; conditions: 3 days
Description: (A and B) CD8^+ T cells isolated from spleens and LNs were polarized under Tc17-inducing conditions and treated with pentanoate for 3 days. Representative contour plots (A) and bar graphs (B) indicate the frequency of IL-17^+ and IFN-γ+ cells. Three similar experiments were performed. (C and D) CD8^+ T cells isolated from spleens and LNs were polarized under Tc9-inducing conditions and treated with pentanoate for 3 days. Representative contour plots (C) and bar graphs (D) are showing the frequency of IL-9^+ and IFN-γ+ cells. Three similar experiments were performed. (E and F) The expression of granzyme B, IFN-γ and Eomes in pentanoate-treated human CTLs was analysed by flow cytometry. Five independent experiments were performed (E). For Eomes, mean fluorescence intensity (MFI) values are shown (F, n=3).

[5] = system: human CAR T cells; experiment: human ROR1-specific CAR T cells pretreated, then co-cultured with ROR1-expressing K562 cells; type: cell-based
From the text: We next investigated the impact of SCFAs on human CD8^+ T lymphocytes and CAR T cells.
(A) CD8^+ T cells isolated from peripheral blood of healthy donors were differentiated into CTLs in presence or absence of indicated HDACi. Representative contour plots and dot plots indicate the frequency of TNF-α+ and IFN-γ^+ cells. Data points in the graphs represent individual donors (n=4, performed in 4 independent experiments) (B-G) Phenotyping of pentanoate-treated ROR1-specific CD8^+ CAR T cells (CARROR1 T cells). (B) Experimental setup for the functional analysis is shown. (C) The cytokine secretion (IFN-γ and TNF-α) was analysed in supernatants of pentanoate-treated CARROR1 T cells by ELISA. (D) The surface expression of CD25 was measured by flow cytometry. (E) The secretion of IL-2 was detected in supernatants of CARROR1 T cells by ELISA. (F) Proliferation of CARROR1 T cells was determined by CFSE labelling. CARROR1 T cells pre-treated with pentanoate were stained with CFSE and subsequently co-cultured with […] cells in the absence of pentanoate. CD8^+ T cells without the CAR construct were used as mock control cells. (G) The cytolytic activity of CARROR1 T cells was examined by analysis of specific lysis following encounter with luciferase-expressing […] cells. The percentage of lysed target cells was determined in 1 hour intervals (effector-to-target cell (E:T) ratio=2.5:1). Data points shown in the graphs (C-G) represent CARROR1 T cells derived from three different donors. Following pentanoate pre-treatment, the stimulation was mediated by co-culture of CD8^+ CARROR1 T cells with ROR1-expressing K652 ([…]) cells in the absence of pentanoate.

With `CCCCC(=O)O` [pentanoate] the “phosphorylation level of S6 ribosomal protein” value [1] was “elevated the phosphorylation levels”, the “phosphorylation level of mTOR” value [1] was “elevated the phosphorylation levels” and the “frequencies and numbers of CD25+CD8+ T cells in iLN, mLN and spleen” value ([2]; day 15 after transfer, vs control CTLs) was “increased frequencies and numbers”. For the same compound, the “in vivo proliferation of CFSE labelled CD8+ T cells” value ([2]; days 4 after transfer, vs control CTLs) was “stronger proliferative ability”, the “cell number and frequency of transferred CD8+ T lymphocytes” value ([2]; days 15 after transfer, without cognate antigen) was “high cell number and frequency” and the “extracellular acidification rate (ECAR)” value [3] was “increased”. The “phenotype of Tc9 and Tc17 cells” value [4] was “phenotypical switch towards IFN-γ-producing CTLs”, the “proliferation of CAR T cells” value ([5]; CFSE labelling, vs control CAR T cells) was “proliferated stronger” and the “expression of CD25” value ([5]; pretreated 4 days) was “upregulated”. The “production of IFN-γ and TNF-α” value ([5]; pretreated 4 days, ELISA) was “elevated the production”, the “secretion of IL-2” value ([5]; pretreated 4 days, ELISA) was “upregulated” and the cytolytic activity ([5]; specific lysis, E:T ratio 2.5:1) was “superior cytolytic activity”.
